One may read the viability as the share of living cells, or the viability signal relative to a control.

The values below come from patent publication US20090306214A1, “Use of Syk Tyrosine Kinase Inhibitors for the Treatment of Cell Proliferative Disorders” (priority 2006, published 2009).

The nature of data set [1]: Viability of HL-60 cells after 3 days, XTT method. In kind it is cell-based, human. The following applies: human, HL-60 cells. From the text: (§1) Secondly, the effect of compounds of the invention may be compared to the natural inhibitor of Syk, piceatannol.
(In general: Tetrazolium dyes change colour on reduction, which living cells bring about.)

The subject of data set [2] is HL-60 cells. Description: Apoptosis of HL-60 cells after 2 days. In kind it is cell-based, human.
Description: as §1

The next data set deals with human PBMC monocytes. Description: Effect on human PBMC monocytes. The data set is classed as cell-based. The following applies: FIGS. 11 and 12. From the text: FIG. 12 illustrates the effect of AV 74S treatment on monocytes;
FIGS. 11 and 12 compare the effect of compounds of the invention—AV 61S and AV 74S—on human PBMC T and B cells (FIG. 11) versus human PBMC monocytes (FIG. 12). […] T cells contain ZAP-70, rather than Syk, but B lymphocytes do contain Syk. […] As such, the effect seen on the B and T cells is believed to be due to the activity on the B cells, not the T cells.

The subject of data set [3] is HL-60 cells. The data set can be described thus: Viability of HL-60 cells after 3 days, XTT method. The data set is classed as cell-based, human.
Description: as §1

The subject of the next data set is PHA-activated PBMCs. The data set can be described thus: Inhibition of PHA-activated PBMCs (lymphocyte proliferation, thymidine incorporation). The following applies: varying concentrations. In kind it is cell-based, human. (Uptake of a labelled nucleoside into DNA is a usual measure of proliferation.)
The next data set deals with Jurkat cells. Description: Jurkat cell survival after a seven day period (Syk-containing). In kind it is cell-based. To be noted: 50 μg/ml; seven days; FIG. 4. The procedure: FIG. 4 illustrates the effect of AV 61S and AV 74S on Jurkat cell survival after a seven day period;
(§2) The jurkat E6.1 line is a Syk-deficient line; in fact, AV 61S after 7 days has no effect on this cell line (i.e., neither apoptosis nor inhibition, see […]). […] The viability study has been performed after 24 and 48 hours of incubation, each time for 3 evaluations; within 1, 3 and 6 hours.

For a further data set, the system named is E6.1 Jurkat cells. The data set can be described thus: E6.1 Jurkat (Syk-deficient) cell survival and viability. The data set is classed as cell-based. The procedure: FIG. 18 illustrates, in comparison with cyclosporin-treated Jurkat cells, the viability of E6.1 Jurkat cells treated with differing concentrations of AV 61S or AV 74S after 24 hours; and
FIG. 19 illustrates, in comparison with cyclosporin-treated Jurkat cells, the viability of E6.1 Jurkat cells treated with differing concentrations of AV 61S or AV 74S after 48 hours.
as §2

Entries after “also recorded” stand apart in the source; their conditions may differ.

In turn, `Oc1cc(O)cc(/C=C/c2ccc(O)c(O)c2)c1` [piceatannol, reference compound] registered a viability at 3 days, 10 μM in data set [1] (Pic 10 μM alone) of 89%. In addition, the viability at 3 days, 30 μM in data set [1] (Pic 30 μM alone) was determined as 79%. For the same compound, the “Apoptosis of HL-60 cells” value in the data set with HL-60 cells [2] (Pic. 10 μM alone) worked out at 20%; with HL-60 cells [2] (Pic. 30 μM alone), 33%.
On to `CC(CO)OCC(C)OCC(C)OCC(C)OCC(C)OCC(C)OCC(C)OC[C@H](Cc1ccccc1)NC(=O)CCc1ccc(O)cc1` (stereo partly shown) [AV 61S], for which, in the data set with human PBMC monocytes, the “effect on monocytes as compared to T and B cells” value is “more profound on monocytes”. Moreover, the “viability of HL-60 cells” value with HL-60 cells [3] (50 μg/ml + Pic 10 μM) is 97 % of control; with HL-60 cells [3] (50 μg/ml + Pic 30 μM), 83 % of control; in the data set with HL-60 cells [3] (50 μg/ml, no piceatannol), 81 % of control; with HL-60 cells [3] (100 μg/ml + Pic 10 μM), 59 % of control; with HL-60 cells [3] (100 μg/ml + Pic 30 μM), 23 % of control; in the data set on HL-60 cells [3] (100 μg/ml, no piceatannol), 36 % of control. Further, the “inhibitory effect on PHA-activated PBMCs” value with PHA-activated PBMCs (DMSO carrier, FIG. 1) is given as “inhibitory effect”; with PHA-activated PBMCs (PBS carrier, FIG. 2), “lesser inhibitory effect”. In addition, in the data set with Jurkat cells, the “killing of Syk-containing Jurkat cells” value is on record as around 100%. Moreover, the “viability of E6.1 Jurkat cells” value with E6.1 Jurkat cells (24 and 48 hours of incubation, FIGS. 18 and 19) is “do not kill them”. In addition, the “effect on Syk-deficient Jurkat E6.1 cell survival” value with E6.1 Jurkat cells (after 7 days, FIG. 3) is listed as “no effect; also recorded: lack of effect”.
